These results are taken from paper PMC2621068 (Neuropeptides, 2008).

Several values for one entry are separate records, joined by “and”; a condition that tells them apart may be missing. Equal values may be shown once.

Data set [1] relates to female Kuming mice. The note with it: mouse, in vivo.
Data set [2] concerns Kuming mice. The format is in vivo, mouse. The note with it: for effect on writhing responses (in words): n = 8; for number of abdominal contortions: mouse, in vivo.
Data set [3] has as its system Kuming mice. The class given is in vivo, mouse. The note with it: for first phase response of the formalin test (in words) / second phase response of the formalin test (in words): n = 8; for paw biting/licking behaviors after subcutaneous peptide (in words): mouse, in vivo, sc.
Data set [4] concerns Kuming mice. The note with it: mouse, in vivo; for edematogenic response after subcutaneous peptide (in words): sc.
Data set [5] relates to female mice. The format is in vivo, mouse. The note with it: for paw withdrawal latency as % of pre-administration values: mouse, in vivo.
Data set [6] concerns NMDAR. The note with it: cited from earlier work.
For data set [7], the system named is NMDAR. The note with it: cited from earlier work. The source holds these as a separate data set.
Data set [8] concerns Kuming mice. The note with it: mouse, in vivo.
Data set [9] concerns mice. The note with it: mouse, in vivo.
Data set [10] has as its system mice. The note with it: mouse, in vivo; cited from earlier work.
The conditions of data set [11]: in vivo; cited from earlier work.

As to GEγγLGKAQALIRAAYA-NH2 [Ala-con-G], in data set [1], the “Paw withdrawal latency after peptide administration, 30 min” value (from here on “Paw withdrawal latency … 30 min”) is 20.3 ± 8.6 s and 11.9 ± 3.4 s; the “Paw withdrawal latency after peptide administration, 90 min” value (“Paw withdrawal latency … 90 min” for short) was 20.9 ± 5.7 s and 22.4 ± 9.5 s; the “Paw withdrawal latency after peptide administration, 150 min” value (shortened to “Paw withdrawal latency … 150 min”) is 24.6 ± 10.4 s and 17.1 ± 7.5 s; the “Paw withdrawal latency after peptide administration, 240 min” value (“Paw withdrawal latency … 240 min” for short) is 16.1 ± 5.0 s and 20.0 ± 16.1 s. In data set [1], the “Paw withdrawal latency before peptide administration” value was 15.3 ± 3.0 s and 11.3 ± 1.9 s; the “antinociception in the hot-plate test (in words)” value (“antinociception” below) is given as “ineffective at antinociception at all time points examined”. In addition, in data set [2], the “effect on writhing responses (in words)” value was “failed to attenuate writhing responses”. In addition, in data set [3], the “first phase response of the formalin test (in words)” value (“first phase response” for short) is listed as “significantly reduced the time spent responding to the afflicted paw” and the “second phase response of the formalin test (in words)” value (“second phase response” below) was “neither Ala-con-G nor con-R[1-17] provided antinociception”. Also, in data set [4], the “Increase in paw width” value is given as 0.97 ± 0.05 mm; the “Injected paw width, after formalin injection” value was found to be 2.56 ± 0.05 mm; the “Injected paw width, before formalin injection” value is 1.60 ± 0.02 mm. For the same substance, the “effect on withdrawal latencies in the CFA model (in words)” value in [5] (n = 8) was “failed to alter withdrawal latencies”. Moreover, in [6], the IC50 is 180 nM. The “components of binding to adult rat brain sections (in words)” value in data set [7] was “only the high-affinity NMDAR-specific component of binding”.

GEγγLQKNQγLIRγKSN-NH2 [con-G[γ7K]]: in data set [1], the “Paw withdrawal latency … 30 min” value is 11.9 ± 4.3 s and 21.5 ± 12.5 s; the “Paw withdrawal latency before peptide administration” value is 14.9 ± 3.5 s and 15.1 ± 3.9 s. The “effect on writhing responses (in words)” value in data set [2] is “failed to attenuate writhing responses”. Also, in data set [3], the “first phase response” value was “significantly reduced the time spent responding to the afflicted paw”. Further, the IC50 in [6] is 220 nM.

For GEγγLQγNQγLIRAKSN-NH2 [con-G[γ14A]], in [1], the “Paw withdrawal latency … 30 min” value is 10.0 ± 3.3 s; the “Paw withdrawal latency … 90 min” value is 20.4 ± 14.2 s; the “Paw withdrawal latency … 150 min” value is “^ˆ25.4 ± 9.3 s”; the “Paw withdrawal latency … 240 min” value was “^ˆ22.8 ± 8.6 s”. In data set [1], the “Paw withdrawal latency before peptide administration” value is listed as 11.3 ± 1.5 s and the “antinociception” value is given as “ineffective at antinociception at all time points examined”. The IC50 in data set [6] was 230 nM.

Turning to GEγγLQγNQγLIRAKYN-NH2 [con-G[S16Y]], in data set [1], the “Paw withdrawal latency before peptide administration” value was 13.4 ± 3.1 s and 9.0 ± 2.1 s; the “antinociception” value is on record as “highest antinociceptive activity”. In [2], the “number of abdominal contortions” value was determined as 6.4 ± 4.6 and the “effect on writhing responses (in words)” value is recorded as “significantly effective in modulating responses to the acid stimulus”. Further, in [3], the “paw biting/licking behaviors after subcutaneous peptide (in words)” value is recorded as “did not significantly diminish paw biting/licking behaviors”, the “first phase response” value is reported as “significantly reduced the time spent responding to the afflicted paw” and the “second phase response” value is reported as “highly effective in reducing the responses to the afflicted paw”. In [4], the “Increase in paw width” value was found to be 0.76 ± 0.05 mm; the “Injected paw width, after formalin injection” value is listed as 2.33 ± 0.05 mm; the “Injected paw width, before formalin injection” value was found to be 1.57 ± 0.03 mm; the “edematogenic response after subcutaneous peptide (in words)” value is “nor did they reduce the edematogenic response”. Moreover, the “paw withdrawal latency as % of pre-administration values” in [5] turned out to be 80%. In addition, the “increase of paw withdrawal latency compared to the day 3 controls” value in [5] (n = 8) is given as ~2 s. In addition, in [8], the “day 3 paw diameter after peptide injection” value amounted to 2.26 ± 0.058 mm and the “day 3 paw diameter before peptide injection” value amounted to 2.36 ± 0.039 mm. In addition, in data set [9], the “motor impairment in the rotarod test, comparison of the two peptides (in words)” value is reported as “reverse effect”; the “motor toxicity in the rotarod test relative to saline (in words)” value is “some toxicity”; the “rotarod stay time, 60 min versus 240 min test times (in words)” value is reported as “no significant differences”. Besides, in [6], the IC50 is 140 nM and the “increase in potency in the [3H]MK-801 binding assay compared to con-G” value is given as 3.5 fold. Besides, the “share of peptide associated with a low-affinity, non-receptor site” value in data set [7] is recorded as “approximately 80%”.

“con-G[N8A]: NR2B-selective con-G variant (GEEELQEAQELIREKSN; not fully specified; Conantokin-G; UniProt P07231 81-97, looked up, variant N8A)”: in data set [1], the “Paw withdrawal latency … 30 min” value is on record as 11.6 ± 4.2 s; the “Paw withdrawal latency … 90 min” value stood at 13.5 ± 4.8 s; the “Paw withdrawal latency … 150 min” value stood at 12.6 ± 2.5 s; the “Paw withdrawal latency … 240 min” value was determined as 13.8 ± 3.1 s. In data set [1], the “Paw withdrawal latency before peptide administration” value was found to be 11.1 ± 2.5 s and the “antinociception” value was “ineffective at antinociception at all time points examined”. Further, the IC50 in data set [6] was 490 nM.

Consider conantokin-G [con-G], for which, in data set [1], the “Paw withdrawal latency … 30 min” value is 12.2 ± 4.5 s and 12.6 ± 12.5 s; the “Paw withdrawal latency before peptide administration” value is 11.6 ± 2.1 s and 11.6 ± 2.5 s. In [2], the “number of abdominal contortions” value is listed as 8.3 ± 6.0. In data set [3], the “paw biting/licking behaviors after subcutaneous peptide (in words)” value is reported as “did not significantly diminish paw biting/licking behaviors”, the “first phase response” value is listed as “significantly reduced the time spent responding to the afflicted paw” and the “second phase response” value is “highly effective in reducing the responses to the afflicted paw”. In [4], the “Increase in paw width” value came to 0.83 ± 0.03 mm; the “Injected paw width, after formalin injection” value was 2.38 ± 0.03 mm; the “Injected paw width, before formalin injection” value is listed as 1.55 ± 0.02 mm; the “edematogenic response after subcutaneous peptide (in words)” value is “nor did they reduce the edematogenic response”. Further, the “paw withdrawal latency as % of pre-administration values” in [5] came to 80%. Moreover, the “increase of paw withdrawal latency compared to the day 3 controls” value in data set [5] (n = 8) was “approximately 1 s”. Moreover, the IC50 in data set [6] is 480 nM. Moreover, the “percent inhibition of responses, first phase of the formalin test” value in data set [10] is given as 25-35%. In addition, the “median toxic dose, rotarod test” value in [11] is on record as “ca. 300 pmol”.

As to conantokin-T [con-T], in data set [1], the “Paw withdrawal latency … 30 min” value is given as 13.1 ± 3.1 s; the “Paw withdrawal latency … 90 min” value is 15.4 ± 4.8 s; the “Paw withdrawal latency … 150 min” value is given as 16.5 ± 4.6 s; the “Paw withdrawal latency … 240 min” value was determined as 16.8 ± 4.5 s. For the same substance, in data set [1], the “Paw withdrawal latency before peptide administration” value stood at 11.9 ± 2.9 s and the “antinociception” value is “without effect”. Also, the IC50 in [6] was 400 nM. Further, in data set [10], the “percent inhibition of responses, first phase of the formalin test” value was 25-35%. The “median toxic dose, rotarod test” value in data set [11] is reported as “ca. 300 pmol”.
